What was measured:
Rattus norvegicus [1] = species: Rattus norvegicus; experiment: Compound was evaluated for the pA2 values against Norepinephrine (NE)-induced contraction of isolated rat vas deferens; type: functional; details: read-out: pA2 (converted)
Rattus norvegicus [2] = species: Rattus norvegicus; experiment: Compound was evaluated for the pA2 values against Dopamine (DA)-induced contraction of isolated rat vas deferens.; type: functional, organism-based; details: read-out: pA2 (converted)
D(1A) dopamine receptor = D(1A) dopamine receptor (Rattus norvegicus, UniProt P18901); experiment: Compound was evaluated for its affinity (pKi) to inhibit [3H]SCH-23390 binding to the dopamine receptor D1
Sequence of D(1A) dopamine receptor (P18901 whole entry): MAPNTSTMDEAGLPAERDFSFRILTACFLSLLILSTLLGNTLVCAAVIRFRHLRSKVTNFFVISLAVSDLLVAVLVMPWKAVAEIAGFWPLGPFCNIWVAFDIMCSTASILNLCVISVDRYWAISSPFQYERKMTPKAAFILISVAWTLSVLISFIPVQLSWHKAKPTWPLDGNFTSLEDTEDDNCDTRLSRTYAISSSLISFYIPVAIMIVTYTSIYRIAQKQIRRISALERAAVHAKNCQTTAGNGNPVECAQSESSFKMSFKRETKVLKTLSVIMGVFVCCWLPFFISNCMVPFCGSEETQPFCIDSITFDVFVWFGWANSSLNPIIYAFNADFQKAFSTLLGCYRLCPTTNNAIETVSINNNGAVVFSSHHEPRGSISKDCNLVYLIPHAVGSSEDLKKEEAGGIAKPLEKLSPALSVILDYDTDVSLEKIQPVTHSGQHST

Mus musculus = species: Mus musculus; experiment: Compound was evaluated for the effective dose that causes lethality in aggregated mice (group toxicity antagonism); type: organism-based; details: in vivo
D(2) dopamine receptor = D(2) dopamine receptor (Rattus norvegicus, UniProt P61169); experiment: Compound was evaluated for its affinity (pKi) to inhibit [3H]spiperone binding to the dopamine receptor D2
Sequence of D(2) dopamine receptor (P61169 whole entry): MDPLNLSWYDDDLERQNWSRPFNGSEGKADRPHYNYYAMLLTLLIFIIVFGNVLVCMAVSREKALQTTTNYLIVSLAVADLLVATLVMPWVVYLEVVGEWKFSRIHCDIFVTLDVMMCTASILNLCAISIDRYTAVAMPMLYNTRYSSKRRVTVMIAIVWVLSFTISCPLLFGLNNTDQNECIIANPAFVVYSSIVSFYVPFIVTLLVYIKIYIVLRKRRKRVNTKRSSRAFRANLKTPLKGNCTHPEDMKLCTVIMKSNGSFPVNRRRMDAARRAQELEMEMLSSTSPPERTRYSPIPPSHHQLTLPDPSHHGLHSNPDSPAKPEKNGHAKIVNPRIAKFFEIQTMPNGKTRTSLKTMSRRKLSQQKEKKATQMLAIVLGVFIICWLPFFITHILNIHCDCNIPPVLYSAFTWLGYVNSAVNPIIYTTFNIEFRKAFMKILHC

O=C1CC(CN2CCC(C(=O)c3ccc(F)cc3)CC2)Cc2ccccc21 (centres undefined) gave a Kb (Rattus norvegicus [1]) of 83.2 nM, a Kb (Rattus norvegicus [2]) of 35.5 nM and a Ki (D(1A) dopamine receptor) of 324 nM. It also gave an ED50 (Mus musculus) of 0.055 mg/kg.
COc1ccccc1N1CCN(CC2CC(=O)c3ccccc3C2)CC1 (centres undefined) gave a Kb (Rattus norvegicus [1]) of 174 nM, a Kb (Rattus norvegicus [2]) of 66.1 nM and a Ki (D(1A) dopamine receptor) of 1350 nM. For the same compound, the ED50 (Mus musculus) was 0.349 mg/kg.
With O=C(CCCN1CCN(CC2CC(=O)c3ccccc3C2)CC1)c1ccc(F)cc1 (centres undefined) the Kb (Rattus norvegicus [1]) was 178 nM, the Kb (Rattus norvegicus [2]) was 53.7 nM and the Ki (D(1A) dopamine receptor) was 380 nM.
O=C(CCCN1CCN(CC2CC(=O)c3ccc(F)cc3C2)CC1)c1ccc(F)cc1 (centres undefined) showed a Ki (D(1A) dopamine receptor) of 912 nM, a Ki (D(2) dopamine receptor) of 77.6 nM and an ED50 (Mus musculus) of 0.053 mg/kg.
Work on O=C1CC(CN2CCC(O)(c3ccccc3)CC2)Cc2ccccc21 (centres undefined) yielded a Ki (D(1A) dopamine receptor) of 741 nM and a Ki (D(2) dopamine receptor) of 74.1 nM.
In the case of O=C(CCCN1CCC(O)(c2ccc(Cl)cc2)CC1)c1ccc(F)cc1 [HALOPERIDOL], the Kb (Rattus norvegicus [1]) is reported as 102 nM, the Kb (Rattus norvegicus [2]) is reported as 39.8 nM and the ED50 (Mus musculus) is reported as 0.02 mg/kg.

From ChEMBL document CHEMBL1125591, “Synthesis and antidopaminergic activity of some 3-(aminomethyl)tetralones as analogues of butyrophenone” (J Med Chem, 1991)
